According to patent US6984521B2, “HEK293 cell line for activity studies and HTS system of α1G T-type Ca2+ channel” (Korea Institute of Science and Technology, priority 2003, dated 2006):

Tests used:
Kir2.1 = molecular target: T1, Kir2.1 (Homo sapiens, UniProt P63252); assay: Kir2.1 channel current, whole-cell patch-clamp; format: cell-based; details: Kir2.1+α1G HEK293 cell; -140 to -60 mV step pulse; 1-100 μM Ba2+, 5-500 μM Cs+
T1 construct: expressed in transfected cells; host or cells: HEK293 cells stably expressing α1G T-type calcium channel, transduced with Kir2.1-pMSCVpuro retrovirus (Kir2.1+α1G HEK293)
T1 sequence (P63252 1-427): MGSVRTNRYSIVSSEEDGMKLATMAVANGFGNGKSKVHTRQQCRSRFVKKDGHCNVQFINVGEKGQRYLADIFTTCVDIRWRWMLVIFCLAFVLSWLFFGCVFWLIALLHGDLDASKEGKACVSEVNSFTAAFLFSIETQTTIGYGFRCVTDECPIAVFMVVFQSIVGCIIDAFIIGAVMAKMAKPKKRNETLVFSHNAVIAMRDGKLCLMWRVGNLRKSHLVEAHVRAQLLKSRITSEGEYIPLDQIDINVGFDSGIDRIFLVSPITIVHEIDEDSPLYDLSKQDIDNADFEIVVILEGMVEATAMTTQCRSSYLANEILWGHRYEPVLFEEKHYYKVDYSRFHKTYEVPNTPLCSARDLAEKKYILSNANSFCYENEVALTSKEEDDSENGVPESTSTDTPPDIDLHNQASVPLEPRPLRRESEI
Experimental: Further, the current of IRK-type potassium channel, Kir2.1 was also determined in a single cell level by the whole-cell patch-clamp method. An extracellular solution for determining IRK-type potassium channel activity comprised NaCl 135 mM, KCl 5.4 mM, CaCl2 1.8 mM, MgCl2 1 mM, HEPES 5 mM and glucose 10 mM (pH 7.4). An intracellular solution comprised D-gluconic acid (potassium salt form) 140 mM, MgCl2 2 mM, EGTA 1 mM, HEPES 5 mM and Na2ATP 1 mM (pH 7.4).
After the cell membrane voltage was fixed as about −60 mV in a whole-cell recording mode, −140 to −60 mV of 200 ms step pulse was applied to determine the inward current induced by potassium inwardly-rectifying channel activation of HEK293 cell.
Furthermore, the characteristics of Kir2.1 channel were analyzed by comparing with IC50 value for Ba^2+ and Cs^+, the conventionally known IRK-type potassium channel inhibitor. For this, Kir2.1 channel activity determination method, as discussed above, was used and the inhibition by the known Kir2.1 inhibitor, Ba^2+ and Cs^+, was observed.
FIG. 4e and FIG. 4f are graphs showing the maximum current that occurred at each voltage when 1–100 μM Ba^2+ and 5–500 μM Cs^+ known as Kir2.1 inhibitor were administered to Kir2.1+α1G HEK293 cell under −140 to −60 mV step pulse.

α1G HEK293 cell = assay: Intracellular calcium with fura-2/AM, control cell; format: cell-based, human; details: 70 mM KCl
Experimental: (§1) The calcium concentration in the cell was determined by using fura-2/AM as a fluorescent Ca^2+ label. The cells were primarily incubated with 5 μM fura-2/AM and 0.001% Pluronic F-127 in HEPES buffer solution (150 mM NaCl, 5 mM KCl, 1 mM MgCl2, 2 mM CaCl2, 10 mM HEPES, 10 mM glucose, pH 7.4) at a room temperature for about 40 to 60 minutes and then washed several times with HEPES buffer solution. After stablilzing the cells for about 10 minutes, the cells were selectively exposed to 340 nm and 380 nm by using an inverted microscope. Thereafter, the emitter fluorescence light that was entered through 515 nm long-pass filter was passed through a cooled CCD […]. The light was converted into the intracellular calcium concentration by digital fluorescence analyzer to determine the calcium concentration.

Kir2.1+α1G HEK293 cell = assay: Intracellular calcium with fura-2/AM, cell line of the invention; format: cell-based, human; details: 70 mM KCl
Experimental: as §1

[1] = molecular target: T2, α1G T-type calcium channel (Rattus norvegicus, UniProt O54898); assay: T-type calcium channel current, whole-cell patch-clamp; format: cell-based; details: activated at about -30 mV; Ni2+ 1 μM to 1 mM, mibefradil 0.1 to 10 μM
T2 construct: expressed in transfected cells; host or cells: HEK293 stably expressing α1G (α1G HEK293, control) and Kir2.1+α1G HEK293
T2 sequence (O54898 whole entry): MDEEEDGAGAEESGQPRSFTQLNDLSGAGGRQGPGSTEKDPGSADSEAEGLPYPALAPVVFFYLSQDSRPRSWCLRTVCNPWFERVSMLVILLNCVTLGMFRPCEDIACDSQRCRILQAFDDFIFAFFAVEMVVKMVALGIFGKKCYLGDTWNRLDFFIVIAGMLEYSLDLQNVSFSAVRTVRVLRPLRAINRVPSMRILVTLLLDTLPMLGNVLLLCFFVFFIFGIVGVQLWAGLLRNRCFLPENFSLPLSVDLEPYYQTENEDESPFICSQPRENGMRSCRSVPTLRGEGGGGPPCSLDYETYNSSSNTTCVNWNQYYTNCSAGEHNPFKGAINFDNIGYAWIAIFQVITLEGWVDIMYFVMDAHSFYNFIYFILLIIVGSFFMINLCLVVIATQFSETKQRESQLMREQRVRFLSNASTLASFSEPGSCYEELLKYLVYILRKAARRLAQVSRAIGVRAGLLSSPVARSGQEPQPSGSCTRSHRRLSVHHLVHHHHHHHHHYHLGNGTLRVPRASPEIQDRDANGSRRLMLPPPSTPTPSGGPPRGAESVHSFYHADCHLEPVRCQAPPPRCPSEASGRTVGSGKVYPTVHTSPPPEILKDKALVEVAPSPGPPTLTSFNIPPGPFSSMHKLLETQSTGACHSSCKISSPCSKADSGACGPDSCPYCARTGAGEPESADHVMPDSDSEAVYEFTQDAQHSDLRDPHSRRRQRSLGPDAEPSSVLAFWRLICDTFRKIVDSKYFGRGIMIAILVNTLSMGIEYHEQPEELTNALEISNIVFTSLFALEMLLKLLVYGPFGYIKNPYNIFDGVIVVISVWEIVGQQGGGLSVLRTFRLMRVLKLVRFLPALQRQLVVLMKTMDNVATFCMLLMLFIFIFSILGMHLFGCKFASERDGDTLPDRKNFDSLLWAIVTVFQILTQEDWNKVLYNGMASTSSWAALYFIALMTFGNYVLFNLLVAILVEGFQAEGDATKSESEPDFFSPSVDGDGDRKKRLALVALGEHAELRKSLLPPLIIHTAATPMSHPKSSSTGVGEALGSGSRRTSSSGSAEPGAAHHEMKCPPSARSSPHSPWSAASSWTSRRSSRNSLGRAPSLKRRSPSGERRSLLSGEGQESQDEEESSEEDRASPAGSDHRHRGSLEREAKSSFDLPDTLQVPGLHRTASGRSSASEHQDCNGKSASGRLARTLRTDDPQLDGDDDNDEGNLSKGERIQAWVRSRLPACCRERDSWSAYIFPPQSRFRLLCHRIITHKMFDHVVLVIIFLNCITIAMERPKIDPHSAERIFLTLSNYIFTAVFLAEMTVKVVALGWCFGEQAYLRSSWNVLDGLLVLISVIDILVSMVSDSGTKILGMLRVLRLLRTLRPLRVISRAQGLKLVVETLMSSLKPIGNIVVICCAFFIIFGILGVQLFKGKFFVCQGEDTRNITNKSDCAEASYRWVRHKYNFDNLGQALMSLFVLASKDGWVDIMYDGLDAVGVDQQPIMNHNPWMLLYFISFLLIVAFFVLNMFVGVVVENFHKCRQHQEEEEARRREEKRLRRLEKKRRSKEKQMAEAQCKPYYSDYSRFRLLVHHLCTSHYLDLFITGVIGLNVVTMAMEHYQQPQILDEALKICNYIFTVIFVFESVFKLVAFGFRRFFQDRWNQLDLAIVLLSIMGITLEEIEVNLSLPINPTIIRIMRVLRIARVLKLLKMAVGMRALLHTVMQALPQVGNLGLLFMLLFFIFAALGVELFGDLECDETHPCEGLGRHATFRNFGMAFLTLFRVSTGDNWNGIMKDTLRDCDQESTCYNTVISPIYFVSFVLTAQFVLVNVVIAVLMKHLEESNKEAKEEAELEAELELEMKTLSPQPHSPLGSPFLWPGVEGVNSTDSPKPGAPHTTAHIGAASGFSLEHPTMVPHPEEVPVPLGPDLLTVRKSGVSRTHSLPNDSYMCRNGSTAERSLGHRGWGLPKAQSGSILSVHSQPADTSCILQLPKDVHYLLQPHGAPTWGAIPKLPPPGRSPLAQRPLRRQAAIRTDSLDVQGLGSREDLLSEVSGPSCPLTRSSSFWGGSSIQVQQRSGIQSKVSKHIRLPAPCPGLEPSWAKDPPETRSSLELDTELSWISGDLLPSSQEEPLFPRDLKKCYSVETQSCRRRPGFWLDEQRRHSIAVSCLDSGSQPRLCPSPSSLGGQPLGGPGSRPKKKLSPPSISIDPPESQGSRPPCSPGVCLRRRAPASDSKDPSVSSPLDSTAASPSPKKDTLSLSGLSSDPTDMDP
Experimental: EPC-9 amplifier (HEKA, Germany) was used to determine the current of T-type calcium channel in a single cell level by electrophysiological whole-cell patch-clamp method. An extracellular solution for determining T-type calcium channel activity comprised NaCl 140 mM, CaCl2 2 mM and HEPES 10 mM (pH 7.4), whereas an intracellular solution comprised KCl 130 mM, HEPES 10 mM, EGTA 11 mM and MgATP 5 mM (pH 7.4).
The prepared intracellular solution was introduced into a microglass electrode of about 3–4 MΦ resistance. Then, the single cell was pricked with the electrode to fix the cell membrane voltage as about −100 mV in a whole-cell recording mode. Thereafter, the inward current was determined, in which the current was induced by T-type calcium channel activity when the hypopolarization was caused by about −30 mV (50 ms duration) approximately every 10 seconds.
Furthermore, the characteristics of the channel were analyzed by comparing with IC50 value for Ni^2+ and mibefradil, the conventionally known T-type calcium channel inhibitor. About 1 μM to 1 mM of Ni^2+ and about 0.1 to 10 μM of mibefradil were administered to the cell, respectively, according to the electrophysiological whole-cell patch-clamp method as described above, and then the inhibition (%) of the maximum of the inward current, caused through T-type calcium channel activated at or about −30 mV, was determined.

Structure (SMILES)	inhibition of Kir2.1 current (maximum current at each voltage) (Kir2.1)	IC50 for inhibition of inward current through T-type calcium channel, Kir2.1+α1G HEK293 cell compared with α1G HEK293 cell [1]	further results
[Ba+2] [Ba^2+]	inhibited in a concentration-dependent manner	–	–
[Cs+] [Cs^+]	inhibited in a concentration-dependent manner	–	–
[Cl-].[K+] [KCl]	–	–	calcium influx (α1G HEK293 cell): does not change calcium influx; calcium influx (Kir2.1+α1G HEK293 cell): calcium influx is induced
[Ni+2] [Ni^2+]	–	not significantly different	–
COCC(=O)O[C@]1(CCN(C)CCCc2nc3ccccc3[nH]2)CCc2cc(F)ccc2[C@@H]1C(C)C [mibefradil]	–	not significantly different	–
